Data published in patent US20260182575A1, “MOLECULES HAVING PESTICIDAL UTILITY AND INTERMEDIATES AND PROCESSES RELATED THERETO” (CORTEVA AGRISCIENCE LLC, priority 2022, published 2026).
Several values for one entry are separate records, joined by “and”; a condition that tells them apart may be missing. Equal entries are not always repeated.

Tests used:
Assay type in all cases: in vivo
[1] = tested on: Corn Earworm (Helicoverpa zea, HELIZE, CEW); experiment: Bioassay 4: corn earworm, artificial diet, 128-cell tray; conditions: AI alone
Method in brief: (§1)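 Test solutions (0.0000004–0.04% w/v, i.e. 0.00005–5 μg/cm² on diet) were pipetted onto artificial lepidopteran diet and one 2nd-instar larva was placed per cell, 8 replicates per species, held at ~26° C. Live larvae were counted after 5 days; percent control used Abbott's correction against a solvent check.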

[2] = tested on: Brown Planthopper (Nilaparvata lugens, NILALU, BPH); experiment: Bioassay 6: brown planthopper, sprayed rice seedlings; conditions: AI alone, AI Rate 0.049 g/ha, 6 days
Experimental: At these rates, F1 and the individual active ingredients were tested at a ratio of 1:1. […] F1 and triflumezopyrim were tested at a ratio of 16:1. Test solutions were prepared containing F1, the individual active ingredients, and mixtures of F1 with each of the active ingredients. Test solutions were prepared by weighing 5 mg of each test chemistry (either alone or in combination depending on the treatment) into a 25 mL glass vial. Next, 1 mL of acetone was added to each vial to dissolve the test chemistries, followed by 19 mL of water with 0.125% Tween 20 adjuvant. This test solution represented the 50 g/ha treatment, which was then serially diluted four-fold to create the three lower rates of 12.5, 3.125, and 0.78 g/ha. Triflumezopyrim was prepared in a similar manner, but two additional serial dilutions were conducted to create solutions representing 6 rates of 12.5, 3.125, 0.78, 0.19, 0.049, and 0.012 g/ha. The higher two doses were discarded, and the four lower doses were used for testing. Each rate was replicated four times, and solvent blanks were used as control treatments.
Five (5) rice seedlings (10-12 days old) planted in 3-inch pots were used as test plants. Rice seedlings were grown in soil and the soil was covered with a 2% agar solution. The test solutions were applied to test plants using a Devries laboratory research sprayer, set to spray at 200 liters per hectare (L/ha) using a TeeJet hollow cone nozzle. Following application, the rice seedlings were dried for 1 hour, after which a single clear plastic tube (2 inches in diameter×12 inches in height) was placed over the seedlings in each pot. The tube was pushed down into the agar to create a sealed test chamber. The agar prevented insects from hiding in the soil and made adult collection and grading easier. Ten to fifteen (10-15) 5th instar BPH nymphs were transferred to each test chamber using a vacuum aspirator. Immediately following BPH infestation, the test chamber was covered with a piece of grade 90 cheesecloth and secured with a rubber band, sealing the test chamber. The test chambers were held at 25° C. for 6 days, after which the total number of live insects was counted in each test chamber. Percent control was measured using Abbott's correction formula (W. S. Abbott, J. Econ. Entomol. 18 (1925), pp. 265-267) as follows:
where X=No. of live insects on solvent check and Y=No. of live insects in treated chambers. In Table B6 the “Expected % Control” was calculated using the method described in Colby S. R., Weeds, 1967, 15, 20-22. Bioassay 7: Corn Earworm (Helicoverpa zea, HELIZE, “CEW”), Fall Armyworm (Spodoptera frugiperda, LAPHFR, “FAW”), Beet Armyworm (Spodoptera exigua, LAPHEG, “BAW”),and Soybean Looper (Chrysodeixis includens, PSEPIN, “SBL”).

[3] = tested on: Soybean Looper (Chrysodeixis includens, PSEPIN, SBL); experiment: Bioassay 4: soybean looper, artificial diet, 128-cell tray; conditions: AI alone
Method in brief: as §1

[4] = tested on: Fall Armyworm (Spodoptera frugiperda, LAPHFR, FAW); experiment: Bioassay 4: fall armyworm, artificial diet, 128-cell tray; conditions: AI alone
Method in brief: as §1

[5] = tested on: Sweet Potato Whitefly (Bemisia tabaci, BEMITA, SPW); experiment: Bioassay 2: sweet potato whitefly, cotton seedling foliar spray; conditions: AI alone
Experimental: Stock solutions were prepared with F1 as well as for each of the active ingredients individually. Test solutions were prepared from the stock solutions. Test solutions were prepared containing F1, the individual active ingredients, and mixtures of F1 with each of the active ingredients. The test solutions for F1 and the individual active ingredients were prepared by adding 500 μL of stock solution to a 25 mL glass vial, then adding 500 μL of acetone, followed by the addition of 9 mL water with 0.025% Tween® 20 to create a 0.001% (w/v) solution. The test solutions containing mixtures of F1, and the individual active ingredients were prepared by adding 500 μL of the active ingredient stock solution to a 25 mL glass vial, followed by 500 μL of the F1 stock solution, then by the addition of 9 mL water with 0.025% Tween® 20 to create a test solution containing 0.001% (w/v) F1 and 0.001% (w/v) of the active ingredient. Each test solution was serially diluted to create desired doses of test solutions (0.001% (w/v), 0.0001% (w/v), 0.00001% (w/v), 0.000001% (w/v), 0.0000001% (w/v), and 0.00000001% (w/v)).
The test solutions were tested against SPW using the following procedure: Cotton seedlings grown in 3-inch pots, pruned so that only one true leaf remained, were used as test substrate. Adult B. tabaci were allowed to colonize the cotton plants and lay eggs for 24 hours after which all adults were removed from the plants using compressed air. Plants were monitored for egg development, and when crawler emergence was underway (>25% emergence based on visual examination using a microscope), the plants were sprayed using the test solutions and methods described above for green peach aphids (GPA). Treated plants were held in a holding room at approximately 25° C. and ambient relative humidity (RH) prior to grading. Evaluation was conducted by counting the number of developed 2-3 instar nymphs per plant under a microscope 7-9 days after treatment. Percent control was measured using Abbott's correction formula (W. S. Abbott, J. Econ. Entomol. 18 (1925), pp. 265-267) as follows:
where X=No. of live nymphs on solvent check plants and Y=No. of live nymphs on treated plants. In Table B2 the “Expected % Control” was calculated using the method described in Colby S. R., Weeds, 1967, 15, 20-22. Bioassay 3: Western Flower Thrips (Frankliniella occidentalis, FRANOC, “WFT”).

| SMILES | Average % Control AI ([1]; 0.000004 wt %) [%] | Average % Control AI ([1]; 0.00004 wt %) [%] | Average % Control AI [2] | Average % Control AI ([3]; 0.000004 wt %) [%] | Average % Control AI ([3]; 0.00004 wt %) [%] | Average % Control AI ([4]; 0.000004 wt %) [%] | Average % Control AI ([4]; 0.00004 wt %) [%] | Average % Control AI ([5]; Wt % AI 0.0001, 7-9 days) [%] | Average % Control AI ([5]; Wt % AI 0.00001, 7-9 days) [%] |
| --- | --- | --- | --- | --- | --- | --- | --- | --- | --- |
| N#CCNC(=O)c1cnccc1C(F)(F)F [Flonicamid] | 0.0 | 0.0 | 5.4% and 1.1% | 0.0 | 0.0 | 0.0 | 0.0 | 0.0 | – |
| O=C1C=C(N(Cc2ccc(Cl)nc2)CC(F)F)CO1 [Flupyradifurone] | 0.0 | 0.0 | 16.3% and 7.6% | 0.0 | 0.0 | 0.0 | 0.0 | 39.2 | 22.9 |
